Assay results from patent publication US7867979B2, “Drug composition for treating 2 type diabetes and diabetic chronicity complications” (Hainan Deze Drug Research Co., Ltd., priority 2006, dated 2011).

What was measured:
Assay type in all cases: in vivo, Goto-Kakizaki rats (GK)
Propyl dialdehyde (MDA) = Propyl dialdehyde (MDA) in kidney tissue homogenate of GK rats; conditions: oral daily 12 weeks
Procedure: (§1) GK rats control group (n=10); mangiferin groups (10, 30, 200 mg/kg, each group 10 rats); berberine groups (10, 20, 150 mg/kg, each group 10 rats); composition group 1[[mangiferin (10 mg/kg)+berberine (10 mg/kg)], 10 rats]; composition group 2[[mangiferin (200 mg/kg)+berberine (150 mg/kg)], 10 rats]. Wistar rats are normal control group (10 rats). GK rats control group and Wistar rats group were given saline. The other groups were given test drugs. Test samples were administrated orally at the same time every day for 12 weeks. 3.3.1 Preparation of tissue homogenate: Rats were killed by femoral artery bloodletting after administration of the rats for 12-weeks. Kidney tissue of the rats were taken, the blood of kidney tissue were washed with cooling saline (4° C.), then the remnant water was absorbed with filter paper, the kidney tissue was weighed. Per gram kidney tissue was added into 10 ml saline, which was put in homogenized machine (10,000 r/min, 10 seconds, 3rd), 10% tissue homogenate was prepared, the tissue homogenate was centrifuged (4000 r/min) for 10 minutes to get supernatant, the supernatant was saved in −20° C. for determination. 3.3.2.2 Propyl dialdehyde (MDA): MDA is determined by TBA, the test box was bought from Nanjing Jiancheng Bioengineering Research Institute. […] The results have been calculated as mean±SD ( x±SD) and the comparisons of the data have been done by t-test. There are ten rats in every group. GK rats control group and wistar rats group were given saline. The other groups were given test drugs. Test samples were administrated orally at the same time every day for 12 weeks. The measurements are as same as the above experiment.

[1] = system: Superoxidedismutase (SOD); assay: Superoxidedismutase (SOD) in kidney tissue homogenate of GK rats; conditions: oral daily 12 weeks
Procedure: as §1, with “[…] SOD” for “3.3.2.2 Propyl dialdehyde (MDA): MDA”, “Xanthine Oxidase calorimetric analysis,” for “TBA,”

diabetic GK rats = assay: Blood glucose and lipid in GK rats; conditions: oral daily 12 weeks; for GLU / Lipid TC / Lipid TG: GK rats, high fat diet
Text: The GK (Goto-Kakizaki) rat is the spontaneous model of diabetes, the pathogenesis of GK rat is very similar to the pathogenesis of type 2 diabetes. After diabetes attack, hyperglycemia and insulin secretion weakened emerge rapidly, the latter diseases may be complicated by retinopathy, micro-vascular disease, neuropathy, nephropathy in GK rat. The GK rats have been widely used in type 2 diabetes study, so we choose GK rat as the animal model of the following experiment. […] Then they can be mixed or diluted in accordance with the dose and the ratio. 1.3 Goto-Kakizaki rats (GK) (4 months age, ♀♂) and Wistar rats (SPF level, ♀♂) were purchased from Shanghai SLAC laboratory animal Co., Ltd. In addition to the normal rats, the other rats were fed with high fat diet (20% protein and 3.5% cholesterol). After the rats was feeding adaptation for one week, The GK rats which the blood glucose level was more than 11.1 mmol/L were selected, and then divided into the following groups random: GK rats control group (n=10); mangiferin groups (10, 30, 200 mg/kg, each group 10 rats); berberine groups (10, 20, 150 mg/kg, each group 10 rats); composition group 1[[mangiferin (10 mg/kg)+berberine (10 mg/kg)], 10 rats]; composition group 2[[mangiferin (200 mg/kg)+berberine (150 mg/kg)], 10 rats]. Wistar rats are normal control group (10 rats). GK rats control group and Wistar rats group were given saline. The other groups were given test drugs. Test samples were administrated orally at the same time every day for 12 weeks. 3.1 Blood Glucose and lipid: The blood specimens were taken at the end of the test. Plasma glucose (GLU), triglycerides (TG), total cholesterol (TC) were determined by HITACHI7080 automatic biochemistry analyzer. […] The results have been calculated as mean±SD ( x±SD) and the comparisons of the data have been done by t-test. […] Mangiferin and berberine are prepared in accordance with the method of preparation of example 1 and 2. Then they can be mixed in accordance with the dose and the ratio such as table 3. 1.2 Animal: Goto-Kakizaki rats (GK) (4 months age, ♀♂) and Wistar rats (SPF level, ♀♂) were purchased from Shanghai SLAC laboratory animal Co., Ltd. In addition to the normal rats, the other rats were fed with high fat diet (20% protein and 3.5% cholesterol). After the rats was feeding adaptation for one week, GK rats that the blood glucose level of the GK rats was more than 11.1 mmol/L were selected, and then random divided into the following groups as follows (Table 3): There are ten rats in every group. GK rats control group and wistar rats group were given saline. The other groups were given test drugs. Test samples were administrated orally at the same time every day for 12 weeks. The measurements are as same as the above experiment.

[2] = 30 mg/kg mangiferin, 20 mg/kg berberine

## COc1ccc2cc3[n+](cc2c1OC)CCc1cc2c(cc1-3)OCO2 [Berberine]
Propyl dialdehyde (MDA); 10 mg/kg
  Measurements about oxidation MDA: 4.39 ± 0.90 nmol/mg pro
Propyl dialdehyde (MDA); 20 mg/kg
  Measurements about oxidation MDA: 3.51 ± 0.46 nmol/mg pro
Propyl dialdehyde (MDA); 150 mg/kg
  Measurements about oxidation MDA: 2.76 ± 0.40 nmol/mg pro
[1]; 10 mg/kg
  Measurements about oxidation SOD: 131.56 ± 23.49 U/mg pro
[1]; 20 mg/kg
  Measurements about oxidation SOD: 170.04 ± 13.49 U/mg pro
[1]; 150 mg/kg
  Measurements about oxidation SOD: 195.10 ± 13.71 U/mg pro
Diabetic GK rats; 10 mg/kg
  Improvement of GLU, TC, TG, AR, MDA, SOD in diabetic GK rats: do not significantly improve
  GLU: 21.24 ± 3.13 mmol/L
  Lipid TC: 4.53 ± 1.28 mmol/L
  Lipid TG: 3.49 ± 0.68 mmol/L
Diabetic GK rats; [2]
  Improvement of GLU, TC, TG, AR, MDA, SOD in diabetic GK rats: improves
Diabetic GK rats; 20 mg/kg
  GLU: 12.29 ± 2.76 mmol/L
  Lipid TC: 3.27 ± 0.24 mmol/L
  Lipid TG: 2.79 ± 0.24 mmol/L
Diabetic GK rats; 150 mg/kg
  GLU: 9.11 ± 2.08 mmol/L
  Lipid TC: 3.01 ± 0.28 mmol/L
  Lipid TG: 1.80 ± 0.19 mmol/L

## O=c1c2cc(O)c(O)cc2oc2cc(O)c([C@@H]3O[C@H](CO)[C@@H](O)[C@H](O)[C@H]3O)c(O)c12 [Mangiferin]
Propyl dialdehyde (MDA); 10 mg/kg
  Measurements about oxidation MDA: 4.41 ± 0.87 nmol/mg pro
Propyl dialdehyde (MDA); 30 mg/kg
  Measurements about oxidation MDA: 3.48 ± 0.47 nmol/mg pro
Propyl dialdehyde (MDA); 200 mg/kg
  Measurements about oxidation MDA: 2.75 ± 0.48 nmol/mg pro
[1]; 10 mg/kg
  Measurements about oxidation SOD: 130.74 ± 23.47 U/mg pro
[1]; 30 mg/kg
  Measurements about oxidation SOD: 168.23 ± 13.46 U/mg pro
[1]; 200 mg/kg
  Measurements about oxidation SOD: 194.15 ± 13.55 U/mg pro
Diabetic GK rats; 10 mg/kg
  Improvement of GLU, TC, TG, AR, MDA, SOD in diabetic GK rats: do not significantly improve
  GLU: 20.75 ± 3.39 mmol/L
  Lipid TC: 4.48 ± 1.53 mmol/L
  Lipid TG: 3.62 ± 0.41 mmol/L
Diabetic GK rats; [2]
  Improvement of GLU, TC, TG, AR, MDA, SOD in diabetic GK rats: improves
Diabetic GK rats; 30 mg/kg
  GLU: 13.05 ± 2.23 mmol/L
  Lipid TC: 3.16 ± 0.32 mmol/L
  Lipid TG: 2.82 ± 0.22 mmol/L
Diabetic GK rats; 200 mg/kg
  GLU: 9.05 ± 2.04 mmol/L
  Lipid TC: 3.06 ± 0.29 mmol/L
  Lipid TG: 1.82 ± 0.32 mmol/L
